According to patent publication US8450366B2, “Isobenzofuran analogs of sclerophytin A” (Board of Trustees of the University of Arkansas, priority 2009, dated 2013):
In brackets after ≈: the same amount, converted by molar mass. Several values for one entry are separate records, joined by “and”; a condition that tells them apart may be missing. Equal values may be shown once. Read-outs that look alike come from different tables or passages of the source.

Key:
[1] = test system: KB-3 human carcinoma cell line; assay: MTT colorimetric assay of KB-3 cell viability; type: cell-based; details: for IC50: KB-3 cells, 96 h treatment, triplicate, read-out: IC50, inhibition of KB-3 cell survival assessed by MTT viability assay
Method: The human KB-3 carcinoma cell line was used to perform the MTT colorimetric assay of cell viability.(22-24) Cells were treated with increasing concentrations of compounds to assess their growth inhibitory properties. IC50 values (concentration of the drug required to reduce cell viability by 50%) ranged from 1 to >100 μM (Table 1).
Inhibition of cell proliferation was assessed by the MTT assay. This assay is based on the ability of a mitochondrial dehydrogenase enzyme from viable cells to cleave the tetrazolium rings of the pale yellow 3-(4,5-dimethylthiazol-2-yl)-2,5-diphenyltetrazolium bromide (MTT) and form a dark blue formazan crystal product which is largely impermeable to cell membranes, thus resulting in its accumulation within healthy cells.(22) Solubilization of the cells by the addition of solvent results in the liberation of the crystals which are solubilized. The level of the formazan product created is directly proportional to the number of living cells.(23,24)
All stock solutions of compounds were made at 10 mM in dimethyl sulfoxide (DMSO). DMSO and MTT were from Sigma Chemical Co. (St. Louis, Mo.). Cell culture reagents were obtained from Life Technologies (Carlsbad, Calif.). The KB-3 human carcinoma cell line was maintained in monolayer culture at 37° C. and 5% CO2 in Dulbecco's Modified Eagle's Medium, supplemented with 10% fetal bovine serum, 2 mM L-glutamine, 50 units/mL penicillin, and 50 μg/mL streptomycin.
KB-3 cells (2000/well) were plated in 96-well dishes, and after 24 h were treated with 0.1 nM-100 μM of the compound in question. […] After 96 h, cells were incubated with 50 μg MTT/well/0.2 mL for 4 h at 37° C., the media was removed, and the formazan crystals were dissolved in 0.15 mL of DMSO. Absorbance at 570 nm was measured with an ELx800™ Microplate Reader (Bio Tek Instruments, Inc., Winooski, Vt.). All treatments were performed in triplicate. Results are shown in FIGS. 1A-D as a percentage of control samples (mean±SD). IC50 is the concentration that reduced survival to 50% of the control (no drug).

[2] = test system: 60-cell line screening; assay: NCI Developmental Therapeutics 60-cell line screening, single dose; type: cell-based; details: NCI 60-cell line screening
[3] = test system: RPMI-8226 leukemia cell line; assay: NCI 60-cell line single dose assay, RPMI-8226; type: cell-based
[4] = test system: PC-3 prostate cancer cell line; assay: NCI 60-cell line single dose assay, PC-3; type: cell-based
[5] = test system: entire leukemia panel; assay: NCI 60-cell line single dose assay, leukemia panel; type: cell-based
[6] = test system: HOP-92 non-small cell lung cancer cell line; assay: NCI 5-dose testing, HOP-92; type: cell-based; details: 5-dose testing, read-out: LC50 (the source's name)
[7] = test system: NCI-H522 non-small cell lung cancer cell line; assay: NCI 60-cell line single dose assay, NCI-H522; type: cell-based
[8] = test system: RPMI-8226 leukemia cell line; assay: NCI 5-dose testing, RPMI-8226; type: cell-based; details: 5-dose testing, read-out: LC50 (the source's name)
[9] = reported in the literature; cited from earlier work
[10] = test system: L1210 cell line; details: reported, cited from earlier work

| Compound | IC50 [1] | further results |
| --- | --- | --- |
| C=C(C)[C@H]1CC=C(C)[C@@]2(O)[C@@H]1[C@H](c1ccccc1Br)O[C@@H]2C(=O)OC [Compound 5a.i] | 5 µM | – |
| C=C(C)[C@H]1CC=C(C)[C@@]2(O)[C@@H]1[C@H](c1ccccc1Br)O[C@@H]2C(=O)OCC1CC1 [Compound 5a.ii] | 50 µM | – |
| C=C(C)[C@H]1CC=C(C)[C@@]2(O)[C@@H]1[C@H](c1ccccc1Br)O[C@@H]2C(=O)OCC1CCCC1 [Compound 5a.iii] | > 100 µM | – |
| C=C(C)[C@H]1CC=C(C)[C@@]2(O)[C@@H]1[C@H](c1ccccc1Br)O[C@@H]2C(=O)OCC [Compound 5a] | ~20 µM and 20 µM | – |
| C=C(C)[C@H]1CC=C(C)[C@@]2(O)[C@@H]1[C@H](c1cccc(Br)c1)O[C@@H]2C(=O)OCC [Compound 5b] | 3 µM | – |
| C=C(C)[C@H]1CC=C(C)[C@@]2(O)[C@@H]1[C@H](c1cccc(Cl)c1Cl)O[C@@H]2C(=O)OCC [Compound 5c] | 5 µM | – |
| C=C(C)[C@H]1CC=C(C)[C@@]2(O)[C@@H]1[C@H](c1ccc(Cl)cc1Cl)O[C@@H]2C(=O)OCC [Compound 5d] | 3 µM | activity in single dose assays [2]: no significant activity |
| C=C(C)[C@H]1CC=C(C)[C@@]2(O)[C@@H]1[C@H](c1cccc3ccccc13)O[C@@H]2C(=O)OC [Compound 5e] | 10 µM | fold more active than the corresponding diene 10e ([1]; KB-3 IC50, entry 8 vs. entry 18): at least 10 fold |
| C=C(C)[C@H]1CC=C(C)[C@@]2(O)[C@@H]1[C@H](c1ccccn1)O[C@@H]2C(=O)OC [Compound 5f] | – | IC50 ([1]; Homo sapiens, KB3): 100 µM |
| C=C(C)[C@H]1CC=C(C)[C@@]2(O)[C@@H]1[C@H](c1cccc[n+]1C)O[C@@H]2C(=O)OC [Compound 5i] | – | IC50 ([1]; Homo sapiens, KB3): > 100 µM |
| C=C(C)[C@H]1CC(=O)C(C)=C2[C@@H](C(=O)OCC)O[C@@H](c3ccccc3Br)[C@@H]21 [Compound 6a] | ~70 µM and 70 µM | – |
| C=C(C)[C@H]1CC(=O)C(C)=C2[C@@H](C(=O)OCC)O[C@@H](c3cccc(Br)c3)[C@@H]21 [Compound 6b] | 30 µM | – |
| C=C(C)[C@H]1CC(=O)C(C)=C2[C@@H](C(=O)OCC)O[C@@H](c3cccc(Cl)c3Cl)[C@@H]21 [Compound 6c] | 5 µM | – |
| C=C(C)[C@H]1CC(=O)C(C)=C2[C@@H](C(=O)OCC)O[C@@H](c3ccc(Cl)cc3Cl)[C@@H]21 [Compound 6d] | 3 µM | differential activity, single dose [3]: significant differential activity; differential activity, single dose [4]: significant differential activity |
| C=C(C)[C@H]1CC=C(C)[C@@]2(O)[C@@H]1[C@H](c1ccccc1Br)O[C@@H]2C(=O)O [Compound 9] | > 100 µM | – |
| C=C(C)C1CC=C(C)C2=COC(c3ccccc3Br)C21 (centres unmarked) [Compound 10a] | 4 µM | – |
| C=C(C)C1CC=C(C)C2=COC(c3cccc4ccccc34)C21 (centres unmarked) [Compound 10e] | > 100 µM | – |
| C=C(C)C1CC=C(C)C2=COC(c3ccco3)C21 (centres unmarked) [Compound 10g] | 2 µM | – |
| C=C(C)C1CC=C(C)C2=COC(c3ccccc3F)C21 (centres unmarked) [Compound 10h] | 1 µM | differential activity, single dose [5]: significant differential activity; CC50 [6]: 26.8 µM; differential activity, single dose [7]: significant differential activity; CC50 [8]: 9.36 µM |
| CO[C@]12C=C[C@](C)(O1)[C@@H](OC(=O)/C=C/c1cn(C)cn1)C[C@H]1C(C)=CC[C@H](C(C)C)[C@H]1/C=C\2CO[C@@H]1OC[C@@H](O)[C@@H](O)[C@@H]1OC(C)=O [Eleutherobin] | – | anti-mitotic activity [9]: taxol-like anti-mitotic activity |
| C=C1CC[C@H](C(C)C)[C@@H]2[C@H]1[C@H]1C[C@](C)(O)[C@@H](O)CC[C@@](C)(O)[C@@H]2O1 [Sclerophytin A] | – | IC50 ([10]; value in brackets, read-out: IC50, growth inhibitory activity against L1210): 0.003 µM; IC50, growth inhibitory activity against L1210 [10]: 1.0 ng/mL (≈ 2.95 nM) |
| COC(=O)/C1=C/[C@@H]2[C@@H](C(C)C)CC=C(C)[C@@H]2C[C@H](OC(=O)/C=C/c2cn(C)cn2)[C@]2(C)C=C[C@@]1(O)O2 [sarcodictyins A, sarcodictyin A] | – | anti-mitotic activity [9]: taxol-like anti-mitotic activity |
| sarcodictyin B [sarcodictyins B] | – | anti-mitotic activity [9]: taxol-like anti-mitotic activity |
